The record followed here is PubChem BioAssay AID743491 (The Scripps Research Institute Molecular Screening Center, 2014).

Active and inactive are the calls of the source. No rule for the calls is given here.

For this assay, the target named is Trace amine-associated receptor 1 (Homo sapiens) (UniProt Q96RJ0). Nature of the assay: TAAR1 agonists, concentration-response, dose response, cell-based, fluorescence, MedChem round 1 (AID 743491). The settings on record: cells expressing human TAAR1, fluorescence agonist read-out.
Sequence of Trace amine-associated receptor 1 (Homo sapiens) (Q96RJ0 whole entry, looked up): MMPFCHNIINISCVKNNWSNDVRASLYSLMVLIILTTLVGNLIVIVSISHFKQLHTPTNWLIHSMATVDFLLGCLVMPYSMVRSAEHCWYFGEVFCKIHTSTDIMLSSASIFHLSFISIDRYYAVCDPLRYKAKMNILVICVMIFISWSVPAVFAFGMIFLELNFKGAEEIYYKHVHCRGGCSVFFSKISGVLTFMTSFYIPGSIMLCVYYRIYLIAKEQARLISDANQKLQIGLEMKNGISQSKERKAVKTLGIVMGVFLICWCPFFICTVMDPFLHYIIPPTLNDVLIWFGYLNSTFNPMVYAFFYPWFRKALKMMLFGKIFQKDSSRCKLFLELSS

On to `Cc1ccc(C(=O)CCN2CCC(c3ccccc3)C2)cc1` (stereo unspecified), for which the EC50 (commonly the midpoint of the concentration-response curve) is 114 nM.

Turning to `CC(CN1CCCC1Cc1ccccc1)C(=O)c1ccc2c(c1)OCCO2` (stereo unspecified), the EC50 is 678 nM.

As for `NC(=O)CCN1C[C@H](c2ccccc2)[C@@H]2[C@H]1C1CCN2CC1`, the EC50 is > 29900 nM (inactive).

In the case of `O=C(CCN1C[C@@H](C(=O)O)[C@H](c2cccc(F)c2)C1)NC1CC1`, the EC50 is > 29900 nM (inactive).

`O=C(CCN1CCC(O)(c2ccccc2)C1)c1ccc2c(c1)OCCO2` (stereo unspecified): the EC50 is > 29900 nM (inactive).

For the compound `CC1CN(CCC(=O)c2ccc3c(c2)OCCO3)CC1c1ccccc1` (stereo unspecified), the EC50 was 378 nM.

On to `O=C(CCN1C[C@@H](C(=O)O)[C@H](c2ccccc2)C1)NCc1cccs1`, for which the EC50 was > 29900 nM (inactive).

On to `O=C(CCN1C[C@@H](C(=O)O)[C@H](c2ccccc2)C1)NC1CCCC1`, for which the EC50 was > 29900 nM (inactive).

Regarding `CC(CN1CCC(c2ccccc2)C1)C(=O)c1ccc2c(c1)OCCO2` (stereo unspecified), the EC50 entry is “inactive”.

Turning to `O=C(CCN1CCC(O)(c2ccc(F)cc2)C1)c1ccc2c(c1)OCCO2` (stereo unspecified), the EC50 was > 29900 nM (inactive).

Turning to `O=C(CCN1CCC(c2ccccc2)C1)c1ccccc1` (stereo unspecified), the EC50 was 174 nM.
